The target of assay [1] is T1, USP2^CD (purified catalytic domain of USP2) (Homo sapiens, UniProt O75604).
T1 construct: The purified catalytic domain of USP2 (USP2^CD, in-house purified); His; made in house; host or cells: E. coli BL21 Gold
T1 sequence (O75604 267-599 limits assumed): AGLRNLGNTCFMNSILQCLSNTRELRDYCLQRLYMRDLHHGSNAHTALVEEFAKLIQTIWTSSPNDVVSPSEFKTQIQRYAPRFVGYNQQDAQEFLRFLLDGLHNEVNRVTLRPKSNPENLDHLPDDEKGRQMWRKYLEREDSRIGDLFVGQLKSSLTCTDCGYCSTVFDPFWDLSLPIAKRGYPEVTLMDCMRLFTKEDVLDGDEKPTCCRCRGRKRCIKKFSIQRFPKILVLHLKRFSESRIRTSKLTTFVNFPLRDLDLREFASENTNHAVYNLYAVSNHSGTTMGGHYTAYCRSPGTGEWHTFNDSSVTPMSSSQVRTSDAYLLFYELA
The experiment in a line: Inhibition of purified USP2^CD enzymatic activity (Ub-AMC or Ub-Rho substrate). The format is biochemical. The note with it: for inhibition at 0.01 µM: 0.01 μM compound; for inhibition at 0.05 µM: 0.05 μM compound; for inhibition at 0.1 µM: 0.1 μM compound; for inhibition at 0.5 µM: 0.5 μM compound; for inhibition at 1 µM: 1 μM compound; for inhibition at 5 µM: 5 μM compound; for inhibition at 10 µM: 10 μM compound; for inhibition at 25 µM: 25 μM compound; for inhibition at 50 µM: 50 μM compound; for IC50: Ub-AMC substrate at 1 μM, Table 2b, read-out: IC50 USP2 CD. The protocol:
(§1) USP2CD or USP8CD were expressed in E. coli BL21 Gold. Cells were grown in LB Miller to mid-log phase and induced by addition of 0.5 mM IPTG for USP2CD for 5 h at 20° C., while 1 mM IPTG was added for USP8CD for 3 h at 37° C. Then, cells were harvested and frozen at −80° C.
For His-tagged USP2CD, cells were resuspended in buffer C (10 mM TRIS pH 8.0, 100 mM NaCl, 10 mM Imidazole) and lysed using a sonicator. The lysate was clarified by centrifugation and applied to Ni Sepharose6 Fast Flow resin (GE Healthcare). The resin was sequentially washed with buffer C, then with buffer C containing 50 mM Imidazole. Protein sample was eluted from the resin using buffer C containing 250 mM Imidazole. The eluted protein was buffer exchanged by gel-filtration on a Superdex 200 10/300 GL column (GE Healthcare) equilibrated in Buffer D (15 mM Bis-TRIS pH 6.0, 100 mM NaCl, 1 mM dithiothreitol (DTT)).
(§2) Enzymatic assay was performed in a HEPES buffer (50 mM pH7.6 1 mM DTT, 2% glycerol, 0.5 mM EDTA) or in a Tris buffer (40 mM pH7.4 1 mM DTT, 5% glycerol, 0.05 mg/ml BSA) respectively, following manufacturer's instructions. Compounds were added to the reaction mixture just prior to the substrate. The enzymatic reaction kinetics was monitored through the apparition of fluorescence due to the hydrolysis of the peptidyl Ub-AMC or Ub-Rho bound over 20 or 30 minutes.
(§3) Medium value out of duplicates is reported.

Assay [2] deals with T2, USP8^CD (purified catalytic domain of USP8) (Homo sapiens, UniProt P40818).
T2 construct: the purified catalytic domain of USP8 (USP8^CD, in-house purified); made in house; host or cells: E. coli BL21 Gold
T2 sequence (P40818 777-1109 limits assumed): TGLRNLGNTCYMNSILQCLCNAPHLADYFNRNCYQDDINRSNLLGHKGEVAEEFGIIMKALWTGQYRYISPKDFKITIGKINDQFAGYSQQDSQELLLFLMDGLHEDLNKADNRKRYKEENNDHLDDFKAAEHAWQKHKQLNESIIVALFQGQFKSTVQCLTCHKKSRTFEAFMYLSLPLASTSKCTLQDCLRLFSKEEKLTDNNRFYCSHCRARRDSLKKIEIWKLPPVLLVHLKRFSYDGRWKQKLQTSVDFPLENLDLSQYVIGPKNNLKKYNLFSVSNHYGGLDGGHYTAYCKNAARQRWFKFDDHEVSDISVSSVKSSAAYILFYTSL
The experiment in a line: Inhibition of purified USP8^CD enzymatic activity (Ub-AMC or Ub-Rho substrate). It is filed as biochemical. The note with it: for inhibition at 0.01 µM: 0.01 μM compound; for inhibition at 0.05 µM: 0.05 μM compound; for inhibition at 0.1 µM: 0.1 μM compound; for inhibition at 0.5 µM: 0.5 μM compound; for inhibition at 1 µM: 1 μM compound; for inhibition at 5 µM: 5 μM compound; for inhibition at 10 µM: 10 μM compound; for inhibition at 25 µM: 25 μM compound; for inhibition at 50 µM: 50 μM compound; for IC50: read-out: IC50 USP8 CD. The protocol:
as §1
For His-tagged USP8CD, cells were resuspended in buffer A (50 mM TRIS pH 8.0, 500 mM NaCl, 2 mM Imidazole) and lysed using a sonicator. The lysate was clarified by centrifugation and applied to Ni Sepharose6 Fast Flow resin (GE Healthcare). The resin was sequentially washed first with buffer A containing 10 mM Imidazole then with buffer A containing 20 mM Imidazole, and finally with buffer A containing 50 mM Imidazole. Protein sample was eluted from the resin using buffer A containing 300 mM Imidazole. The eluted protein was buffer exchanged by gel-filtration on a Superdex 200 10/300 GL column (GE Healthcare) equilibrated in Buffer B (20 mM HEPES pH 7.5, 300 mM NaCl, 2 mM dithiothreitol (DTT)).
as §2, §3

Setting [3] is: Ub-AMC substrate at 1 μM, Table 2b.
Where [4] appears, read: Ub-Rhodamine substrate at 0.1 μM, Table 2c.

Molecules are shown by their SMILES. Where two headings read alike, the source gives them in different places. Bounds are passed on as bounds.

As for `COc1ccc(S(=O)(=O)Cc2nc3c(nc2CS(=O)(=O)c2ccc(OC)cc2)C(=O)c2ccccc2C3=O)cc1` [PCR7994], in assay [1] (Table 1c), the inhibition (in general, the drop in the measured response relative to a control, in per cent) at 0.01 µM was -8%; the inhibition at 0.05 µM is -12%; the inhibition at 0.1 µM was 2%; the inhibition at 0.5 µM was 26%. Further, in assay [1] (Table 1c), the inhibition at 1 µM came out at 5%, the inhibition at 5 µM is 8% and the inhibition at 10 µM is 17%. Further, in assay [1] (Table 1b), the inhibition at 1 µM is -9%, the inhibition at 5 µM turned out to be 22%, the inhibition at 25 µM stood at 53% and the inhibition at 50 µM was determined as 50%. The IC50 (usually the concentration at which inhibition is half-maximal) in assay [1] is greater than 10 µM. In addition, in assay [2] (Table 1d), the inhibition at 0.01 µM was -7%, the inhibition at 0.05 µM was -13%, the inhibition at 0.1 µM is -23% and the inhibition at 0.5 µM came out at 18%. Besides, in assay [2] (Table 1d), the inhibition at 1 µM was determined as 31%, the inhibition at 5 µM was 52% and the inhibition at 10 µM came out at 73%. In assay [2] (Table 1b), the inhibition at 1 µM was found to be 62%, the inhibition at 5 µM worked out at 68%, the inhibition at 25 µM stood at 91% and the inhibition at 50 µM amounted to 100%. For the same compound, the IC50 in assay [2] (setting [3]) worked out at 5 µM.
As to `O=C1c2ccccc2C(=O)c2nc(CBr)c(CBr)nc21` [PCR8132], the IC50 is 17 µM in assay [1] and 4.5 µM in assay [2] (setting [3]).
Turning to `O=C1c2ccccc2C(=O)c2nc(CS(=O)(=O)c3ccc4c(c3)OCCO4)c(CS(=O)(=O)c3ccc4c(c3)OCCO4)nc21` [OVM19], in assay [1] (Table 1c), the inhibition at 0.01 µM is -19%, the inhibition at 0.05 µM was -14%, the inhibition at 0.1 µM was found to be 13% and the inhibition at 0.5 µM is -1%. In addition, in assay [1] (Table 1c), the inhibition at 1 µM was 9%, the inhibition at 5 µM was -3% and the inhibition at 10 µM amounted to 11%. Besides, in assay [1] (Table 1b), the inhibition at 1 µM was 20%, the inhibition at 5 µM was determined as 25%, the inhibition at 25 µM turned out to be 21% and the inhibition at 50 µM came to 18%. Besides, the IC50 in assay [1] was greater than 10 µM. Also, in assay [2] (Table 1d), the inhibition at 0.01 µM is -22%, the inhibition at 0.05 µM is -5%, the inhibition at 0.1 µM is -9% and the inhibition at 0.5 µM is 17%. In addition, in assay [2] (Table 1d), the inhibition at 1 µM came out at 44%, the inhibition at 5 µM turned out to be 46% and the inhibition at 10 µM was 54%. In assay [2] (Table 1b), the inhibition at 1 µM was 53%, the inhibition at 5 µM was determined as 61%, the inhibition at 25 µM was found to be 76% and the inhibition at 50 µM stood at 77%. The IC50 in assay [2] (setting [3]) was found to be 7.5 µM.
As to `O=C1c2ccccc2C(=O)c2nc(CS(=O)(=O)c3ccc(Br)s3)c(CS(=O)(=O)c3ccc(Br)s3)nc21` [OVM16], in assay [1] (Table 1b), the inhibition at 1 µM is 1%, the inhibition at 5 µM amounted to 26%, the inhibition at 25 µM was 42% and the inhibition at 50 µM turned out to be 80%. Also, in assay [2] (Table 1b), the inhibition at 1 µM came out at 10%, the inhibition at 5 µM came out at 56%, the inhibition at 25 µM was found to be 92% and the inhibition at 50 µM turned out to be 104%.
On to `O=C1c2ccccc2C(=O)c2nc(CS(=O)(=O)c3cccc(F)c3)c(CS(=O)(=O)c3cccc(F)c3)nc21` [OVM13], for which, in assay [1] (Table 1c), the inhibition at 0.01 µM was found to be 9%, the inhibition at 0.05 µM was -20%, the inhibition at 0.1 µM is -32% and the inhibition at 0.5 µM is -3%. Besides, in assay [1] (Table 1c), the inhibition at 1 µM was -6%, the inhibition at 5 µM is 10% and the inhibition at 10 µM was 1%. Further, in assay [1] (Table 1b), the inhibition at 1 µM amounted to 17%, the inhibition at 5 µM amounted to 48%, the inhibition at 25 µM was 66% and the inhibition at 50 µM was 41%. For the same compound, the IC50 in assay [1] is greater than 10 µM. In assay [2] (Table 1d), the inhibition at 0.01 µM was -22%, the inhibition at 0.05 µM was 3%, the inhibition at 0.1 µM was -9% and the inhibition at 0.5 µM was determined as 44%. Also, in assay [2] (Table 1d), the inhibition at 1 µM came to 65%, the inhibition at 5 µM came out at 76% and the inhibition at 10 µM turned out to be 35%. Also, in assay [2] (Table 1b), the inhibition at 1 µM turned out to be 60%, the inhibition at 5 µM worked out at 88%, the inhibition at 25 µM amounted to 102% and the inhibition at 50 µM amounted to 94%. In addition, the IC50 in assay [2] (setting [3]) stood at 0.4 µM. Moreover, the IC50 in assay [2] (setting [4]) worked out at 0.4 µM.
As to `O=C1c2ccccc2C(=O)c2nc(CS(=O)(=O)c3cccc(Cl)c3)c(CS(=O)(=O)c3cccc(Cl)c3)nc21` [OVM15], in assay [1] (Table 1c), the inhibition at 0.01 µM worked out at 19%, the inhibition at 0.05 µM came out at 3%, the inhibition at 0.1 µM was found to be 3% and the inhibition at 0.5 µM is 23%. Moreover, in assay [1] (Table 1c), the inhibition at 1 µM amounted to 37%, the inhibition at 5 µM was -10% and the inhibition at 10 µM was found to be 17%. In addition, in assay [1] (Table 1b), the inhibition at 1 µM turned out to be 0%, the inhibition at 5 µM is 1%, the inhibition at 25 µM amounted to 16% and the inhibition at 50 µM stood at 30%. The IC50 in assay [1] is greater than 10 µM. Besides, in assay [2] (Table 1d), the inhibition at 0.01 µM came to 24%, the inhibition at 0.05 µM came to 16%, the inhibition at 0.1 µM was 14% and the inhibition at 0.5 µM stood at 18%. In addition, in assay [2] (Table 1d), the inhibition at 1 µM worked out at 64%, the inhibition at 5 µM was 52% and the inhibition at 10 µM came to 51%. Moreover, in assay [2] (Table 1b), the inhibition at 1 µM was found to be 68%, the inhibition at 5 µM came to 51%, the inhibition at 25 µM was 70% and the inhibition at 50 µM is 83%. The IC50 in assay [2] (setting [3]) is 0.4 µM. Also, in assay [2] (setting [4]), the IC50 is 0.4 µM.
On to `O=C1c2ccccc2C(=O)c2nc(CS(=O)(=O)c3cccc(C(F)(F)F)c3)c(CS(=O)(=O)c3cccc(C(F)(F)F)c3)nc21` [OVM17], for which, in assay [1] (Table 1b), the inhibition at 1 µM was -11%, the inhibition at 5 µM came to 9%, the inhibition at 25 µM came out at 27% and the inhibition at 50 µM amounted to 25%. Also, in assay [2] (Table 1b), the inhibition at 1 µM was determined as 25%, the inhibition at 5 µM came out at 33%, the inhibition at 25 µM was determined as 68% and the inhibition at 50 µM came out at 85%.

Source of the values: patent US11306063B2, “Heterocyclic naphthoquinones derivatives for use in the treatment of cancers including Cushing disease” (Commissariat a l'Energie Atomique et aux Energies …, priority 2016, dated 2022).
